In brackets after ≈: the same amount, converted by molar mass. Several values for one entry are separate records, joined by “and”; a condition that tells them apart may be missing. Equal entries are not always repeated.
Legend:
Leishmania donovani = experiment: […] activity against drug sensitive Leishmania donovani assessed as inhibition of parasite growth; type: functional, organism-based
Pasteurella multocida = experiment: Antibacterial activity against Pasteurella multocida assessed as inhibition of bacterial growth; type: functional
Staphylococcus aureus = experiment: Antibacterial activity against Staphylococcus aureus assessed as inhibition of bacterial growth; type: functional
Plasmodium falciparum [1] = experiment: Antimalarial activity against drug sensitive Plasmodium falciparum NF54 assessed as inhibition of parasite growth; type: functional, organism-based
Haemophilus influenzae = experiment: Antibacterial activity against Haemophilus influenzae assessed as inhibition of bacterial growth; type: functional
[2] = target: T1, Polyunsaturated fatty acid 5-lipoxygenase (Homo sapiens) (UniProt P09917); experiment: Inhibition of ALOX5 (unknown origin) assessed as reduction in calmodulin level
T1 sequence (whole entry): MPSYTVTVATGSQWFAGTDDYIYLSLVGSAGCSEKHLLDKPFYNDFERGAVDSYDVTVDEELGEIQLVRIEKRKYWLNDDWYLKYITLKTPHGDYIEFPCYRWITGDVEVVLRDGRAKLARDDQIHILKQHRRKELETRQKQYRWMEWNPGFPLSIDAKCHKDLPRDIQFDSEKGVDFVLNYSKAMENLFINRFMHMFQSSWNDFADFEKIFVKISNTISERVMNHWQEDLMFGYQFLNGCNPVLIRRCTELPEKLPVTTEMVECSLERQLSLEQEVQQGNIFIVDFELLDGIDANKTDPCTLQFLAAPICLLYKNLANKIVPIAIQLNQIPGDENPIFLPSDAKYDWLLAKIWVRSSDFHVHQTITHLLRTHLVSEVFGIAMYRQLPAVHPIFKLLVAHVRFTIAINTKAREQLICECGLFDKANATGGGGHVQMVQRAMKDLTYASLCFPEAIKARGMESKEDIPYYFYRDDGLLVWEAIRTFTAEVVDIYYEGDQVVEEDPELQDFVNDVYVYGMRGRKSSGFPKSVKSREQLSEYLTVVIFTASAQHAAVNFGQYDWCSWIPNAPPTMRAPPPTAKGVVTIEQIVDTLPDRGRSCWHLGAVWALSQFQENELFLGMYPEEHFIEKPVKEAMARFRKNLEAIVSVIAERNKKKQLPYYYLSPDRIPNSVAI

KB = experiment: Antiproliferative activity against human KB cells assessed as cell growth inhibition; type: functional, cell-based
Homo sapiens [3] = organism: Homo sapiens; experiment: Inhibition of LTB3 (unknown origin) at 0.000001 M relative to control; conditions: dose 1 µM
[4] = target: T1, Polyunsaturated fatty acid 5-lipoxygenase (Homo sapiens); experiment: Inhibition of ALOX5 (unknown origin) at 0.000001 M relative to control; conditions: dose 1 µM
Homo sapiens [5] = organism: Homo sapiens; experiment: Inhibition of LTB3 (unknown origin) at 0.00001 M relative to control; conditions: dose 10 µM
[6] = target: Calmodulin-1 (Homo sapiens) (UniProt P0DP23); experiment: Inhibition of calmodulin (unknown origin)
Bacillus subtilis = experiment: Antibacterial activity against Bacillus subtilis assessed as inhibition of bacterial growth; type: functional
Pyricularia oryzae = experiment: Antifungal activity against Pyricularia oryzae assessed as inhibition of microbial growth; type: functional, organism-based
[7] = target: T1, Polyunsaturated fatty acid 5-lipoxygenase (Homo sapiens); experiment: Inhibition of ALOX5 (unknown origin) at 0.00000001 M relative to control; conditions: dose 10 nM
Trypanosoma cruzi = experiment: […] activity against drug sensitive Trypanosoma cruzi assessed as inhibition of parasite growth; type: functional, organism-based
[8] = test system: Trypanosoma brucei rhodesiense; experiment: […] activity against drug sensitive Trypanosoma brucei rhodesiense assessed as inhibition of parasite growth; type: functional, organism-based
Priestia megaterium = experiment: Antibacterial activity against Bacillus megaterium assessed as inhibition of bacterial growth; type: functional
[9] = target: T1, Polyunsaturated fatty acid 5-lipoxygenase (Homo sapiens); experiment: Inhibition of ALOX5 (unknown origin) assessed as reduction in 5-HETE formation
Streptococcus viridans = experiment: Antibacterial activity against Streptococcus viridans assessed as inhibition of bacterial growth; type: functional
Cryptococcus neoformans = experiment: […] activity against Cryptococcus neoformans assessed as inhibition of […]; type: functional
[10] = test system: Trichophyton mentagrophytes; experiment: Antifungal activity against Trichophyton mentagrophytes assessed as inhibition of microbial growth; type: functional
Plasmodium falciparum [11] = experiment: Antimalarial activity against drug sensitive Plasmodium falciparum KI assessed as inhibition of parasite growth; type: functional, organism-based
[12] = Antioxidant activity assessed as DPPH radical scavenging activity; type: functional
Rattus norvegicus = organism: Rattus norvegicus; experiment: Inhibition of iron-induced lipid peroxidation in rat brain homogenate; type: functional
[13] = test system: Trypanosoma brucei brucei; experiment: Antitrypanosomal activity against bloodstream Trypanosoma brucei brucei assessed as parasite growth inhibition measured after 72 hrs by alamar blue assay; type: functional, organism-based
Breast carcinoma cell = experiment: Antiproliferative activity against human Breast cancer cell line assessed as cell growth inhibition; type: functional, cell-based
DNA polymerase beta = DNA polymerase beta (Homo sapiens, UniProt P06746); experiment: Inhibition of DNA polymerase beta (unknown origin)
[14] = test system: Human immunodeficiency virus 1; experiment: Antiviral activity against HIV-1; type: functional, organism-based
Aspergillus niger = experiment: Antifungal activity against Aspergillus niger assessed as inhibition of microbial growth; type: functional
Homo sapiens [15] = organism: Homo sapiens; experiment: Inhibition of LTB3 (unknown origin) at 0.0000001 M relative to control; conditions: dose 100 nM
Rhizoctonia solani = experiment: Antifungal activity against Rhizoctonia solani assessed as inhibition of microbial growth; type: functional
[16] = test system: Acinetobacter calcoaceticus; experiment: Antibacterial activity against Acinetobacter calcoaceticus assessed as inhibition of bacterial growth; type: functional
MCF7 = experiment: Antiproliferative activity against human MCF7 cells assessed as cell growth inhibition; type: functional, cell-based
Homo sapiens [17] = organism: Homo sapiens; experiment: Inhibition of LTB3 (unknown origin) at 0.00000001 M relative to control; conditions: dose 10 nM
Bacillus cereus = experiment: Antibacterial activity against Bacillus cereus assessed as inhibition of bacterial growth; type: functional
Neisseria meningitidis = experiment: Antibacterial activity against Neisseria meningitidis assessed as inhibition of bacterial growth; type: functional
[18] = target: T1, Polyunsaturated fatty acid 5-lipoxygenase (Homo sapiens); experiment: Inhibition of ALOX5 (unknown origin) at 0.0000001 M relative to control; conditions: dose 100 nM
Streptococcus pyogenes = experiment: Antibacterial activity against Streptococcus pyogenes assessed as inhibition of bacterial growth; type: functional
Candida albicans = experiment: Antifungal activity against Candida albicans assessed as inhibition of fungal growth by MTT assay; type: functional
[19] = target: T1, Polyunsaturated fatty acid 5-lipoxygenase (Homo sapiens); experiment: Inhibition of ALOX5 (unknown origin) at 0.00001 M relative to control; conditions: dose 10 µM
[20] = Inhibition of plasmodium falciparum fabZ
Cyclooxygenase = Cyclooxygenase (Homo sapiens, UniProt P35354+P23219); experiment: Inhibition of COX (unknown origin); type: protein assay
HCT-116 = experiment: Antiproliferative activity against human HCT-116 cells assessed as cell growth inhibition; type: functional
Leishmania amazonensis = experiment: Antileishmanial activity against Leishmania amazonensis axenic amastigotes assessed as inhibition of parasite growth; type: functional, organism-based
M14 = experiment: Antiproliferative activity against human M14 cells assessed as cell growth inhibition; type: functional
P388 = experiment: Antiproliferative activity against mouse P388 cells assessed as cell growth inhibition; type: functional, cell-based
K562 = experiment: Antiproliferative activity against human K562 cells assessed as cell growth inhibition; type: functional
Caenorhabditis elegans = experiment: Nematocidal activity against Caenorhabditis elegans; type: functional, organism-based
HT-29 = experiment: Antiproliferative activity against human HT-29 cells assessed as cell growth inhibition; type: functional, cell-based
[21] = test system: Trypanosoma brucei brucei; experiment: […] activity against Trypanosoma brucei brucei GUTat 3.1 assessed as inhibition of parasite growth measured after 72 hrs by alamar blue assay; type: functional, organism-based; conditions: GUTat 3.1, time 72 hrs
A549 = experiment: Antiproliferative activity against human A549 cells assessed as cell growth inhibition; type: functional
[22] = Cytotoxicity against mouse 3T3 cells assessed as reduction in cell viability; type: toxicity, cell-based; conditions: NIH3T3 cells
NCI-H460 = experiment: Antiproliferative activity against human NCI-H460 cells assessed as cell growth inhibition; type: functional
DU-145 = experiment: Antiproliferative activity against human DU-145 cells assessed as cell growth inhibition; type: functional
U-937 = experiment: Antiproliferative activity against human U-937 cells assessed as cell growth inhibition; type: functional

## Oc1cc2cc(c1O)Oc1ccc(cc1)CCc1cccc(O)c1Oc1cccc(c1)CC2 [MARCHANTIN A]
Leishmania donovani
  IC50: 1.59 µM
Pasteurella multocida
  MIC: 4.5 µM (≈ 1.98 µg/mL)
Staphylococcus aureus
  MIC: 3.13 µg/mL and 0.0069 µM
Plasmodium falciparum [1]
  IC50: 3.41 µM
Haemophilus influenzae
  MIC: 72.7 µM (≈ 32 µg/mL)
[2]
  ID50: 1.85 µg/mL (≈ 4.2 µM)
KB
  IC50: 3.7 µM
Homo sapiens [3]
  inhibition: 97%
[4]
  inhibition: 94%
Homo sapiens [5]
  inhibition: 99%
[6]
  ID50: 1.85 µg/mL (≈ 4.2 µM)
Bacillus subtilis
  MIC: 25 µg/mL (≈ 56.8 µM)
Pyricularia oryzae
  MIC: 12.5 µg/mL
[7]
  inhibition: 16%
Trypanosoma cruzi
  IC50: 14.1 µM
[8]
  IC50: 2.09 µM
Priestia megaterium
  MIC: 25 µg/mL (≈ 56.8 µM)
[9]
  ID50: 1.85 µg/mL (≈ 4.2 µM)
Streptococcus viridans
  MIC: 18.1 µM (≈ 7.97 µg/mL)
Cryptococcus neoformans
  MIC: 12.5 µg/mL (≈ 28.4 µM)
[10]
  MIC: 3.13 µg/mL
Plasmodium falciparum [11]
  IC50: 2.02 µM
[12]
  IC50: 20 µg/mL (≈ 45.4 µM)
Rattus norvegicus
  IC50: 0.51 µM
[13]
  IC50: 0.27 µg/mL (≈ 0.613 µM)
Breast carcinoma cell
  IC50: 5.5 µM
DNA polymerase beta
  IC50: 14.4 µM
[14]
  IC50: 5.3 µg/mL (≈ 12 µM)
Aspergillus niger
  MIC: 25 µg/mL
Homo sapiens [15]
  inhibition: 70%
Rhizoctonia solani
  MIC: 50 µg/mL
[16]
  MIC: 6.25 µg/mL (≈ 14.2 µM)
MCF7
  IC50: 4 µg/mL and 11.5 µM
Homo sapiens [17]
  inhibition: 40%
Bacillus cereus
  MIC: 12.5 µg/mL (≈ 28.4 µM)
Neisseria meningitidis
  MIC: 72.7 µM (≈ 32 µg/mL)
[18]
  inhibition: 45%
Streptococcus pyogenes
  MIC: 9.1 µM (≈ 4.01 µg/mL)
Candida albicans
  MID: 2.5 µg/mL
[19]
  inhibition: 89%
[20]
  IC50: 18.2 µM
Cyclooxygenase
  IC50: 46.4 µM

## CC(=O)OCC1=CO[C@H](OC(C)=O)[C@@H]2[C@H]1[C@@H]1[C@H](CC[C@@]23CO3)C1(C)C
KB
  IC50: 0.28 µg/mL
HCT-116
  GI50: 4.7 µM
Leishmania amazonensis
  IC50: 7.1 µM
M14
  GI50: 3.9 µM
P388
  IC50: 3 µg/mL (≈ 8.56 µM)
K562
  GI50: 4.8 µM
Caenorhabditis elegans
  IC50: 111 µg/mL (≈ 317 µM)
HT-29
  GI50: 1.9 µM
[21]
  MIC: 14.5 µM (≈ 5.08 µg/mL)
A549
  GI50: 9.4 µM
[22]
  GI50: 1.7 µM
MCF7
  GI50: 6.8 µM
NCI-H460
  GI50: 4.8 µM
DU-145
  GI50: 1.4 µM
U-937
  GI50: 2.6 µM
